pIC50: −log10 of the molar value.
Test system: 885512-296-R-J2-PDC complex spheroid viability
Assay: Anticancer human tumor 885512-296-R-J2-PDC patient-derived breast carcinoma cell line growth inhibition
Conditions: for pIC50: curve of first compound; for viability, T/C: stronger effect = lower value
How it was run: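 Drug combinations with the LSD1 inhibitor iadademstat tested on tumor cells co-cultured as spheroids with endothelial cells and mesenchymal stem cells. Concentrations descended in half-log increments from clinical Cmax or 10 microM.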

[1] = second compound 0.1 µM, first compound 0.000316 µM
[2] = second compound 0.1 µM, first compound 0.001 µM
[3] = second compound 0.1 µM, first compound 0.00316 µM
[4] = second compound 0.1 µM, first compound 0.01 µM
[5] = second compound 0.1 µM, first compound 0.0316 µM
[6] = second compound 0.1 µM, first compound 0.1 µM
[7] = second compound 0.316 µM, first compound 0.000316 µM
[8] = second compound 0.316 µM, first compound 0.001 µM
[9] = second compound 0.316 µM, first compound 0.00316 µM
[10] = second compound 0.316 µM, first compound 0.01 µM
[11] = second compound 0.316 µM, first compound 0.0316 µM
[12] = second compound 0.316 µM, first compound 0.1 µM
[13] = second compound 1 µM, first compound 0.000316 µM
[14] = second compound 1 µM, first compound 0.001 µM
[15] = second compound 1 µM, first compound 0.00316 µM
[16] = second compound 1 µM, first compound 0.01 µM
[17] = second compound 1 µM, first compound 0.0316 µM
[18] = second compound 1 µM, first compound 0.1 µM
[19] = second compound 3.16 µM, first compound 0.000316 µM
[20] = second compound 3.16 µM, first compound 0.001 µM
[21] = second compound 3.16 µM, first compound 0.00316 µM
[22] = second compound 3.16 µM, first compound 0.01 µM
[23] = second compound 3.16 µM, first compound 0.0316 µM
[24] = second compound 3.16 µM, first compound 0.1 µM
[25] = second compound 10 µM, first compound 0.000316 µM
[26] = second compound 10 µM, first compound 0.001 µM
[27] = second compound 10 µM, first compound 0.00316 µM
[28] = second compound 10 µM, first compound 0.01 µM
[29] = second compound 10 µM, first compound 0.0316 µM
[30] = second compound 10 µM, first compound 0.1 µM
[31] = second compound 0.1 µM, first compound 0.00949 µM
[32] = second compound 0.1 µM, first compound 0.03 µM
[33] = second compound 0.1 µM, first compound 0.0949 µM
[34] = second compound 0.1 µM, first compound 0.3 µM
[35] = second compound 0.1 µM, first compound 0.949 µM
[36] = second compound 0.1 µM, first compound 3 µM
[37] = second compound 0.316 µM, first compound 0.00949 µM
[38] = second compound 0.316 µM, first compound 0.03 µM
[39] = second compound 0.316 µM, first compound 0.0949 µM
[40] = second compound 0.316 µM, first compound 0.3 µM
[41] = second compound 0.316 µM, first compound 0.949 µM
[42] = second compound 0.316 µM, first compound 3 µM
[43] = second compound 1 µM, first compound 0.00949 µM
[44] = second compound 1 µM, first compound 0.03 µM
[45] = second compound 1 µM, first compound 0.0949 µM
[46] = second compound 1 µM, first compound 0.3 µM
[47] = second compound 1 µM, first compound 0.949 µM
[48] = second compound 1 µM, first compound 3 µM
[49] = second compound 3.16 µM, first compound 0.00949 µM
[50] = second compound 3.16 µM, first compound 0.03 µM
[51] = second compound 3.16 µM, first compound 0.0949 µM
[52] = second compound 3.16 µM, first compound 0.3 µM
[53] = second compound 3.16 µM, first compound 0.949 µM
[54] = second compound 3.16 µM, first compound 3 µM
[55] = second compound 10 µM, first compound 0.00949 µM
[56] = second compound 10 µM, first compound 0.03 µM
[57] = second compound 10 µM, first compound 0.0949 µM
[58] = second compound 10 µM, first compound 0.3 µM
[59] = second compound 10 µM, first compound 0.949 µM
[60] = second compound 10 µM, first compound 3 µM
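Further: spheroids exposed to agents for 7 days before viability read.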

CC(C)CC(NC(=O)C(Cc1ccccc1)NC(=O)c1cnccn1)B(O)O (stereo not given) + NC1CCC(NC2CC2c2ccccc2)CC1
pIC50 (second compound 0.1 µM): 8.89
pIC50 (second compound 0.316 µM): 8.87
pIC50 (second compound 1 µM): 8.86
pIC50 (second compound 3.16 µM): 8.88
pIC50 (second compound 10 µM): 8.96
viability, T/C [1]: 149%
viability, T/C [2]: 63.9%
viability, T/C [3]: 2.42%
viability, T/C [4]: 0.24%
viability, T/C [5]: 7.32%
viability, T/C [6]: 3.74%
viability, T/C [7]: 134%
viability, T/C [8]: 65.7%
viability, T/C [9]: 2.51%
viability, T/C [10]: 0.43%
viability, T/C [11]: 7.09%
viability, T/C [12]: 3.61%
viability, T/C [13]: 152%
viability, T/C [14]: 68.4%
viability, T/C [15]: 2.46%
viability, T/C [16]: 0.35%
viability, T/C [17]: 3.66%
viability, T/C [18]: 3.45%
viability, T/C [19]: 137%
viability, T/C [20]: 66.2%
viability, T/C [21]: 1.59%
viability, T/C [22]: 0.23%
viability, T/C [23]: 0.08%
viability, T/C [24]: 0.08%
viability, T/C [25]: 138%
viability, T/C [26]: 54%
viability, T/C [27]: 1.4%
viability, T/C [28]: 0.2%
viability, T/C [29]: 0.09%
viability, T/C [30]: 0.13%

CC(C)CC(NC(=O)CNC(=O)c1cc(Cl)ccc1Cl)B1OC(=O)CC(CC(=O)O)(C(=O)O)O1 (stereo not given) + NC1CCC(NC2CC2c2ccccc2)CC1
pIC50 (second compound 0.1 µM): 8.19
pIC50 (second compound 0.316 µM): 8.16
pIC50 (second compound 1 µM): 8.18
pIC50 (second compound 3.16 µM): 8.19
pIC50 (second compound 10 µM): 8.29
viability, T/C [1]: 148%
viability, T/C [2]: 136%
viability, T/C [3]: 102%
viability, T/C [4]: 16.9%
viability, T/C [5]: 4.82%
viability, T/C [6]: 8.2%
viability, T/C [7]: 125%
viability, T/C [8]: 126%
viability, T/C [9]: 106%
viability, T/C [10]: 23.3%
viability, T/C [11]: 3.92%
viability, T/C [12]: 3.86%
viability, T/C [13]: 121%
viability, T/C [14]: 131%
viability, T/C [15]: 103%
viability, T/C [16]: 20.4%
viability, T/C [17]: 4.02%
viability, T/C [18]: 6.64%
viability, T/C [19]: 124%
viability, T/C [20]: 117%
viability, T/C [21]: 110%
viability, T/C [22]: 14.4%
viability, T/C [23]: 5.03%
viability, T/C [24]: 1.02%
viability, T/C [25]: 107%
viability, T/C [26]: 107%
viability, T/C [27]: 76.3%
viability, T/C [28]: 12%
viability, T/C [29]: 2.47%
viability, T/C [30]: 0.56%

Nc1ccccc1NC(=O)c1ccc(CNC(=O)OCc2cccnc2)cc1 + NC1CCC(NC2CC2c2ccccc2)CC1
pIC50 (second compound 0.1 µM): 6.97
pIC50 (second compound 0.316 µM): 6.97
pIC50 (second compound 1 µM): 6.91
pIC50 (second compound 3.16 µM): 6.91
pIC50 (second compound 10 µM): 7.04
viability, T/C [31]: 123%
viability, T/C [32]: 111%
viability, T/C [33]: 50.6%
viability, T/C [34]: 25.3%
viability, T/C [35]: 16.7%
viability, T/C [36]: 7.75%
viability, T/C [37]: 115%
viability, T/C [38]: 110%
viability, T/C [39]: 51.7%
viability, T/C [40]: 24.6%
viability, T/C [41]: 15.5%
viability, T/C [42]: 8.27%
viability, T/C [43]: 116%
viability, T/C [44]: 106%
viability, T/C [45]: 52.9%
viability, T/C [46]: 28.6%
viability, T/C [47]: 11.4%
viability, T/C [48]: 6.94%
viability, T/C [49]: 123%
viability, T/C [50]: 105%
viability, T/C [51]: 54.1%
viability, T/C [52]: 26.6%
viability, T/C [53]: 12.5%
viability, T/C [54]: 4.09%
viability, T/C [55]: 107%
viability, T/C [56]: 89.8%
viability, T/C [57]: 46.5%
viability, T/C [58]: 20.5%
viability, T/C [59]: 9.82%
viability, T/C [60]: 4.99%

O=C(C=Cc1cccc(S(=O)(=O)Nc2ccccc2)c1)NO + NC1CCC(NC2CC2c2ccccc2)CC1
pIC50 (second compound 0.1 µM): 7.13
pIC50 (second compound 0.316 µM): 7.07
pIC50 (second compound 1 µM): 7.07
pIC50 (second compound 3.16 µM): 7.15
pIC50 (second compound 10 µM): 7.30
viability, T/C [31]: 104%
viability, T/C [32]: 80.2%
viability, T/C [33]: 42.8%
viability, T/C [34]: 19.8%
viability, T/C [35]: 13.6%
viability, T/C [36]: 17.1%
viability, T/C [37]: 112%
viability, T/C [38]: 87.6%
viability, T/C [39]: 45.6%
viability, T/C [40]: 22.4%
viability, T/C [41]: 15.7%
viability, T/C [42]: 14.6%
viability, T/C [43]: 108%
viability, T/C [44]: 84.4%
viability, T/C [45]: 47.1%
viability, T/C [46]: 19.9%
viability, T/C [47]: 12.3%
viability, T/C [48]: 11.9%
viability, T/C [49]: 90.2%
viability, T/C [50]: 69.2%
viability, T/C [51]: 43.8%
viability, T/C [52]: 24.1%
viability, T/C [53]: 12.7%
viability, T/C [54]: 12.7%
viability, T/C [55]: 90.8%
viability, T/C [56]: 65.5%
viability, T/C [57]: 30.6%
viability, T/C [58]: 17.3%
viability, T/C [59]: 8.4%
viability, T/C [60]: 16.5%

— PubChem BioAssay AID1918946 (Molecular Pharmacology Branch, DTP, NCI, 2023)
